“Also recorded” adds a separate entry of the source.
Tests used:
mAb1 [1] = test: mAb1 light stress, eight hours, with L-Trp and L-Met; Fab/Fc oxidation by papain digest RP-HPLC; type: physicochemical, human; settings: for Effect on Fc oxidation of mAb1 (in words): L-Met 10, 25, 50, 100 mM added to 1 mM L-Trp
Experimental: L-tryptophan (L-Trp), an antioxidant used in protein formulations, has been recently shown to be photosensitive (Igarashi et al., Anal Sci 23(8):943-8 (2007)) and to have the ability to produce H2O2 upon light exposure. […] Control vials were wrapped in aluminum foil and treated similarly. After light exposure, solutions were prepared for analysis by reverse-phase HPLC. […] Following incubation, 900 μL of the solution was combined with 100 μL of 1 M dithiothreitol (DTT) and incubated for another thirty minutes at 37° C. Samples were then run on an Agilent, Inc. 1100/1200 HPLC system (Santa Clara, Calif.) equipped with UV detection at 280 nm in conjunction with a Varian, Inc. Pursuit 3 μm, 2 mm ID×250 mm diphenyl column (Palo Alto, Calif.). Mobile Phase A was 0.1% TFA in water. Mobile Phase B was 0.1% TFA in acetonitrile. The mobile phase gradient increased linearly from 34% B at 0 minutes to 43% B at 50.0 minutes, then to 95% B at 50.1 minutes. The gradient remained at 95% B until 60.1 minutes, and then decreased linearly from 95% B to 34% B between 60.1 and 60.2 minutes. The gradient remained at 34% B until the end of the cycle at 80.2 minutes. The column temperature was 65° C., total flow rate was 0.2 mL/min, and injection volume of each sample was 6 μL. Chromatograms were then integrated for quantification of oxidation.

[2] = Photosensitivity screening: H2O2 formation by antioxidant candidates upon light exposure (Amplex Ultra Red Assay); type: physicochemical
Experimental: As a screening tool, antioxidant candidates were exposed to light for four hours at 250 W/m^2 and the resulting H2O2 formation was quantified by the Amplexassay. Specifically, antioxidants were prepared to 1 mM in 20 mM histidine acetate buffer at pH 5.5. The 1 mM antioxidant solutions were aliquoted into glass vials (2 mL/glass vial) and exposed to four hours of light at 250 W/m^2 in an Atlas SunTest CPS+ Xenon Test Instrument (Chicago, Ill.). Total UV dose was 90 watt-hours/square meter and total visible dose was 0.22 million lux hours over the 4-hour period. Control vials were wrapped in aluminum foil and treated similarly. The amount of hydrogen peroxide generated after exposure to light was measured using the Amplex® Ultra Red Assay (Invitrogen, Carlsbad, Calif.) following the manufacturer's recommended procedure. On addition of horseradish peroxidase (HRP), the dye reacted 1:1 stoichiometrically with H2O2, resulting in the production of fluorescent oxidation product resorufin. In this study, fluorescence readings were obtained using a Spectra Max M2 Micro-plate Reader (Molecular Devices, Sunnyvale, Calif.) with excitation and emission set at 560 nm and 590 nm, respectively. Final H2O2 concentrations were determined using a standard curve ranging from 0 μm to 20 μm. […]

[3] = Cyclic voltammetry (CV) screening of oxidation potentials; type: physicochemical; settings: for Oxidation potential relative to L-Trp (in words): cyclic voltammetry; for Oxidation Potential (anodic peak): glassy carbon working electrode, 0.2 M lithium perchlorate
Experimental: The oxidation/reduction characteristics of the compounds were investigated. Several compounds, including L-Trp and derivatives, were evaluated for the protection of Trp oxidation in proteins using cyclic voltammetry (CV) and rank ordered based on their oxidation potentials (Table 2). Specifically, the candidate antioxidants were dissolved in deionized water and then added to a 0.2 M lithium perchlorate electrolyte solution. […] Solutions were scanned from −0.10 V to +1.50 V at a scan rate of either 100 or 500 mV/sec. The analytical cell was purged for four minutes with nitrogen before scanning of each antioxidant solution. The input was a linear scan of the potential of a working electrode, and the output was measurement of the resulting current. […] Redox reactions were characterized by sharp increases or decreases in current (peaks). The potential at which an oxidation reaction occurred was referred to as the anodic peak potential (or oxidation potential), and the potential at which a reduction occurred was referred to as is the cathodic peak (or reduction) potential.

mAb1 [4] = test: mAb1 light stress study, 16 hours; Fab/Fc oxidation by RP-HPLC; type: physicochemical, human; settings: for Fc oxidation under light stress compared to no excipient control (in words) / Fab oxidation increase over the control level (mAb1 Ref Mat) / Effect on light-induced Fab oxidation (in words): 16 hours of light at 250 W/m^2, excipient 1 mM; for Fab oxidation increase over the control level (mAb1 Ref Mat): label mAb1 = No Excipient
Experimental: (§1) The fragments were reduced with DTT, and then separated and identified via Liquid Chromatography-Mass Spectrometry (LC-MS). […] Comparison of area integrated under the oxidized and native peaks was used to quantify HC Fab and Fc oxidation. […] By using the papain digest RP-HPLC method in the present study it was possible to investigate Trp residue oxidation by quantifying HC Fab oxidation, and Met residue oxidation by quantifying HC Fc oxidation.
Antioxidants were added at 1 mM. Glass vials containing these formulations were exposed to 250 W/m^2 light in an Atlas SunTest CPS+ Xenon Test Instrument (Chicago, Ill.). Control vials were wrapped in aluminum foil and treated similarly. After light exposure, solutions were prepared for analysis by reverse-phase HPLC as described above.

mAb1 [5] = test: mAb1 AAPH stress study; Fab/Fc oxidation by RP-HPLC; type: physicochemical, human; settings: antioxidants at 1 mM; for Fab (Trp residue) oxidation of mAb1 after AAPH incubation: 24 hours at 40° C., label mAb1 = no excipient
From the text: as §1
% Fab oxidation and % Fc oxidation were calculated as follows: […]
Antioxidants were added at 1 mM. […] After buffer exchange, each solution was prepared for analysis by reverse-phase HPLC as described above.

mAb1 [6] = test: mAb1 Fenton stress study (H2O2 + Fe); Fab/Fc oxidation by RP-HPLC; type: physicochemical, human; settings: 10 ppm H2O2, 0.2 mM Fe(III), 40° C. for 3 hours, no excipient
Experimental: Antioxidants were added at a final concentration of 1 mM. […] After incubation, each reaction was quenched by addition of 100 mM L-Met and then prepared for analysis by reverse-phase HPLC as described above.
The Fenton reaction, using a mixture of H2O2 and Fe ions, generates oxidation through a metal catalyzed, hydroxyl radical reaction (Prousek et al., Pure and Applied Chemistry 79(12):2325-2338 (2007)). This reaction generated Fab, i.e. tryptophan, oxidation in mAb1. The reaction was also carried out in the presence of select antioxidants that were useful against both AAPH and light induced oxidation as reported above. Data related to the antioxidant properties against Fenton mediated reaction were analyzed using the RP-HPLC assay as described above. The Fenton reaction used 10 ppm of H2O2 and 0.2 mM of Fe(III). The reaction was incubated at 40° C. for 3 hours, quenched with 100 mM L-Met and analyzed using RP-HPLC after papain digest. All samples were the average of three separate vials, and mAb1 control (Ref Mat) was one vial with five independent injections on the HPLC. […] In regards to protection against Fc oxidation, the tested excipients (other than salicylic acid) performed slightly better than L-Trp.

[7] = 8 h light at 250 W/m^2, label mAb1 = No Excipient
[8] = 1 mM in 20 mM histidine acetate pH 5.5, four hours of light at 250 W/m^2
[9] = 1 mM, 20 mM L-His-acetate pH 5.5, 4 h light, 0.22 million lux hours

Molecule	(H2O2 produced by Compound)/(H2O2 produced by L-Trp) [2, 8]	Oxidation potential relative to L-Trp (in words) [3]	Oxidation Potential (anodic peak) [3] [V vs Ag/AgCl]	H2O2 production upon light exposure compared to L-Trp (in words) [2, 9]	Fab (Trp residue) oxidation of mAb1 after AAPH incubation (mAb1 [5])	Effect on light-induced Fab oxidation (in words) (mAb1 [4])	further results
CSCC[C@H](N)C(=O)O [L-Met, L-methionine]	–	–	–	–	–	–	Effect on Fab oxidation of mAb1 (in words) (mAb1 [1]; 8 h light at 250 W/m^2, 10, 25, 50, 100 mM L-Met added to formulation containing 1 mM L-Trp): appeared to reduce Fab oxidation slightly; Effect on Fc oxidation of mAb1 (in words) (mAb1 [1]; [7]): reduced the amount of Fc oxidation
NC(=O)[C@@H](N)Cc1c[nH]c2ccccc12 [L-Trpamide, Tryptophanamide]	0.43	higher oxidation potential than L-Trp	1.015	–	–	–	Fc oxidation under light stress compared to no excipient control (in words) (mAb1 [4]): more Fc oxidation; Fab oxidation increase over the control level (mAb1 Ref Mat) (mAb1 [4]): 8 fold
Oc1ccc2[nH]ccc2c1 [5-Hydroxyindole, 5-Hydroxy Indole]	−0.08	–	0.580	low levels of H2O2 production	about 2%	reducing Fab oxidation to near control levels	–
Oc1cccc2cc[nH]c12 [7-Hydroxyindole, 7-Hydroxy Indole]	−0.03	–	–	–	about 2%	reducing Fab oxidation to near control levels	–
mAb1: monoclonal anti-DR5 antibody, drozitumab (CAS number 912628-39-8), human monoclonal IgG1	–	–	–	–	–	–	Fab oxidation of mAb1 (mAb1 [1]; 5 mg/mL mAb1, 8 h light at 250 W/m^2, L-Trp at 1 mM, label mAb1 = No Excipient): 4%; Effect on Fc oxidation of mAb1 (in words) (mAb1 [1]; [7]): only a minor increase in Fc oxidation; Increase in Fc oxidation over the control level (mAb1 [4]; 16 hours of light at 250 W/m^2, no excipient): 40%; Fab oxidation increase over the control level (mAb1 Ref Mat) (mAb1 [4]): 3.5 fold; Oxidation in the Fab region of mAb1 over the control (in words) (mAb1 [6]): about four times the oxidation
N[C@@H](Cc1c[nH]c2ccc(O)cc12)C(=O)O [5-Hydroxy-L-Trp, 5-Hydroxy-Tryptophan]	0.09	–	0.565	–	about 2%	reducing Fab oxidation to near control levels	H2O2 production upon light exposure compared to L-Trp (in words) ([2]; 1 mM, 20 mM L-His-acetate pH 5.5, 4 h light, 0.22 million lux hours, listed as 5-hydroxy-L-tryptophan): about one tenth of the H2O2; also recorded: low levels of H2O2 production
NCCc1c[nH]c2ccc(O)cc12 [Serotonin (5-Hydroxytryptamine), 5-hydroxytryptamine]	0.03	–	0.600	very little H2O2; also recorded: low levels of H2O2 production	about 2%	reducing Fab oxidation to near control levels	–
Nc1ccccc1C(=O)CC(N)C(=O)O [L-Kynurenine, Kynurenine]	0.20	higher oxidation potential than L-Trp	1.040	–	–	–	H2O2 production upon light exposure compared to L-Trp (in words) ([2]; 1 mM, 20 mM L-His-acetate pH 5.5, 4 h light, 0.22 million lux hours, listed as L-kynurenine): did not produce much H2O2; H2O2 production upon light exposure compared to L-Trp (in words) ([2]; 1 mM, 20 mM L-His-acetate pH 5.5, 4 h light, 0.22 million lux hours, listed as kynurenine): about one fifth of the H2O2
c1ccc2[nH]ccc2c1 [Indole]	0.95	significantly lower oxidation potential than L-Trp	–	behaved similarly to L-Trp	–	–	–
O=C(O)c1ccccc1O [Salicylic Acid]	–	higher oxidation potential than L-Trp	1.080	–	–	–	(H2O2 produced by Compound)/(H2O2 produced by L-Trp) ([2]; pH 5.5): 0.03; H2O2 production upon light exposure compared to L-Trp (in words) ([2]; pH 5.5): very little H2O2; also recorded: did not produce much H2O2; Effect on AAPH-induced Fab oxidation (in words) (mAb1 [5]; AAPH 24 hours at 40° C.): almost no effect on Fab oxidation; Fc oxidation under light stress compared to no excipient control (in words) (mAb1 [4]): more Fc oxidation; Fab oxidation increase over the control level (mAb1 Ref Mat) (mAb1 [4]): 8 fold
COc1ccc2[nH]cc(CCNC(C)=O)c2c1 [N-acetyl-5-methoxytryptamine]	0.28	–	0.730	less than a third of the H2O2	–	–	–

From patent US10653779B2, “Formulations with reduced oxidation” (Genentech, Inc., priority 2013, dated 2020)
